This is an account of results in patent US20220072022A1, “ANTI-AGING AGENT OR LIFE-EXTENDING AGENT” (StaGen Co., Ltd., priority 2019, published 2022).

Assay [1] concerns C. elegans wild type strain (N2, Bristrol). Briefly: Extension of C. elegans (nematode) lifespan by febuxostat, wild type strain (Example 1). It counts as in vivo. The settings on record: wild type strain N2, febuxostat 10 mg/ml, 20° C., FIG. 2. On the procedure:
(§1) Extension of lifespan by febuxostat was examined using a wild type strain (N2, Bristrol) and a daf-16 gene (nematode ortholog of human transcription factor FOXO; a typical example of shortened lifespan in nematode variant due to a transcription factor that is suppressed by insulin signals) variant strain (mu86). Both strains were bred at 20° C.
(§2) In order to keep the developmental stage of the strains used for lifespan measurement constant, it was waited until food (Escherichia coli) was exhausted and growth of first instar larvae stopped. The nematode was cut and planted together with agar in a petri dish with food.
(§3) Ampicillin (100 μg/ml) was added to a 6 cm NGM plate (standard medium for nematode culture) to inhibit the growth of the food Escherichia coli strain and its associated metabolism, and OP50 (the food Escherichia coli strain) and FBX were added ([…]).
(§4) When the cut and planted nematodes became adults, they were washed out of the petri dish using M9 buffer and collected. The nematodes were suspended in Eppendorf tubes. An equal amount of bleach solution (a mixture of 4N NaOH, hypochlorous acid solution, and M9 buffer at a ratio of 2:3:5) to the nematode suspension was added and mixed. […]
(§5) Life or death was determined for each individual every other day, and the data was recorded. […]
(§6) The lifespan tracking was completed when it was determined that all nematodes had died.

The test system of assay [2] is C. elegans daf-16 gene variant strain (mu86). Briefly: Extension of C. elegans (nematode) lifespan by febuxostat, daf-16 variant strain (Example 1). It counts as in vivo. On the procedure: as §1, §2, §3, §4, §5, §6
Assay [3] relates to C. elegans wild type strain (N2, Bristrol). Briefly: Effect of febuxostat on nematode lifespan, UV-killed Escherichia coli plus kanamycin (Example 3). Type of assay: in vivo. As to conditions: N2, febuxostat 5, 10, 20 μg/mL, FIG. 4. As for the experimental part: The effect of febuxostat on lifespan was examined using a wild type strain (N2, Bristrol) of C. elegans as a nematode. In addition, mitochondria of the nematode cultured in the absence and presence of febuxostat were compared under electron microscopy. The culturing method and culturing conditions for nematodes (N2) were almost the same as those in Example 1 except for the method for treating the food added to the medium. Generally, Escherichia coli is added to the NGM plate as food for nematodes; however, when Escherichia coli grows, it may affect metabolites, etc. Therefore, a method of adding the antibiotic ampicillin to stop the growth of Escherichia coli is performed. However, it cannot be completely denied that the presence of ampicillin in the NGM plate had some effect. Therefore, instead of adding ampicillin, Escherichia coli was killed by being irradiated with ultraviolet rays, and kanamycin was further added. In this way, Escherichia coli as food was treated differently from Example 1, and it was checked whether the same experimental results as in Example 1 could be obtained. The concentration of febuxostat added to the NGM plate was 5, 10, 20 μg/mL.

Assay [4] relates to mitochondria of the muscle of C. elegans (N2). Nature of the assay: Effect of febuxostat on mitochondrial morphology in nematode muscle, electron microscopy (Example 3). Type of assay: in vivo. The settings on record: cultured 18 days in the presence of 20 μg/mL of febuxostat, compared with FBX(−), FIG. 5. As for the experimental part: The effect of febuxostat on lifespan was examined using a wild type strain (N2, Bristrol) of C. elegans as a nematode. In addition, mitochondria of the nematode cultured in the absence and presence of febuxostat were compared under electron microscopy.
On the 18th day of culturing, nematodes were fixed by the following method. An M9 buffer comprising 8% ethanol was dropped on a slide glass, and the nematodes were placed therein and allowed to stand until the nematodes stopped moving (about 5 minutes). Next, a fixing solution was placed on another slide glass, and the nematodes that had stopped moving were transferred to the fixing solution. The fixing solution comprises 2% paraformaldehyde+2% glutaraldehyde/0.1M phosphate buffer (pH 7.4), and was adjusted prior to use.
Subsequently, a 22 G injection needle was used to cut the nematodes in the following procedure.
First, the cranial side was cut from the pharynx, and then amputation was performed around Vulva. In this experiment, in order to observe the mitochondria of the muscle behind Vulva with an electron microscope, only the caudal side was collected and placed in an Eppendorf tube comprising a fixing solution (4° C.)
Observation with an electron microscope was carried out by requesting the Hanaichi UltraStructure Research Institute (Okazaki City, Aichi Prefecture) using an electron microscope HITACHI H-7600 (100 kV).

A further assay has as its system C. elegans. As to conditions: Non-Patent Documents 13 to 16; cited from earlier work.

For `Cc1nc(-c2ccc(OCC(C)C)c(C#N)c2)sc1C(=O)O` [febuxostat], the lifespan result was “showed an extension of lifespan” in assay [1] and “showed an extension of lifespan” in assay [2] (daf-16 gene variant strain (mu86), febuxostat 10 mg/ml, 20° C., FIG. 3). For the same compound, in assay [2] (daf-16 gene variant strain (mu86) with febuxostat), the “lifespan compared with the wild type strain” value is “did not reach the same length of lifespan as that of the wild type strain”. Besides, the lifespan of nematodes result in assay [3] is reported as “lifespan of nematodes is extended”. In assay [4], the “morphology of mitochondria in the muscle” value is recorded as “morphology of mitochondria is maintained almost normally”.

As for `CN(C)C(=N)N=C(N)N` [metformin], the “lifespan in C. elegans” value in the assay with C. elegans was “prolongs the lifespan”.
